We go through 13 compounds from ChEMBL document CHEMBL1148283 (J Med Chem, 2004).

For assay [1], the target named is T1, Nitric oxide synthase 3 (Homo sapiens, UniProt P29474).
T1 sequence (P29474 whole entry): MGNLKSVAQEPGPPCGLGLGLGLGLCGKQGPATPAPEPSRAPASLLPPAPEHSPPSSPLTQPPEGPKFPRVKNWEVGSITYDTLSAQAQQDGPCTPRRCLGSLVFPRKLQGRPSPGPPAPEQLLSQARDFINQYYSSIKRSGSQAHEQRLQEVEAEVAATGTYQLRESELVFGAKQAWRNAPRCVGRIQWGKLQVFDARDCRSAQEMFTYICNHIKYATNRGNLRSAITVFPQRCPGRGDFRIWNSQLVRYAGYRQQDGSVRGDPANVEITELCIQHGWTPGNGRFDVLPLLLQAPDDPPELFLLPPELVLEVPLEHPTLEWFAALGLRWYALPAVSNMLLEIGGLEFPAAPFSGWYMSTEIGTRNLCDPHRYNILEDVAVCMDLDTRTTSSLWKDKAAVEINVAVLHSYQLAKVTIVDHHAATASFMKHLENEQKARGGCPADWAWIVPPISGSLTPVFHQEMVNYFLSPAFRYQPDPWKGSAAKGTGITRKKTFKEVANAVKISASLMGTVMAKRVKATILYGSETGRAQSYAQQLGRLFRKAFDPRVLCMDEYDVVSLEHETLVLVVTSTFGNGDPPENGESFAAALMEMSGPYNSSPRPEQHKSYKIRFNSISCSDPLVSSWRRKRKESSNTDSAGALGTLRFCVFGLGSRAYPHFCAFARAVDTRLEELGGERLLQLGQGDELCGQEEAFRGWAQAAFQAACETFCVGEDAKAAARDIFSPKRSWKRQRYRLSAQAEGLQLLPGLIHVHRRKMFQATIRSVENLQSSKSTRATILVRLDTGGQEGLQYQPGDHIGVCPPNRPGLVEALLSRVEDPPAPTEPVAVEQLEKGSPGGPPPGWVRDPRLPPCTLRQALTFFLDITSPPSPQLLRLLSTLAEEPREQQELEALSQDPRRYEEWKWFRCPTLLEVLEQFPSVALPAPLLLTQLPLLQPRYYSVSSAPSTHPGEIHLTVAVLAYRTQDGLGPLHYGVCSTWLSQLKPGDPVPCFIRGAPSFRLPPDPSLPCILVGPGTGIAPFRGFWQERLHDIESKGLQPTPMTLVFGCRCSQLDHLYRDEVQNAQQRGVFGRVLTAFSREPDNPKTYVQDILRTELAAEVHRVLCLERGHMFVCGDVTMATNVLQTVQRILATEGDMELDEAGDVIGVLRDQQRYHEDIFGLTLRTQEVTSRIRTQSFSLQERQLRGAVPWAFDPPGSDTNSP
Kind of assay: In vitro inhibition of human endothelial nitric oxide synthase.

Assay [2] deals with T2, Nitric oxide synthase 1 (Homo sapiens, UniProt P29475). Kind of assay: Percentage inhibition of human neuronal nitric oxide synthase (nNOS) at 100 uM.
T2 sequence (P29475 whole entry): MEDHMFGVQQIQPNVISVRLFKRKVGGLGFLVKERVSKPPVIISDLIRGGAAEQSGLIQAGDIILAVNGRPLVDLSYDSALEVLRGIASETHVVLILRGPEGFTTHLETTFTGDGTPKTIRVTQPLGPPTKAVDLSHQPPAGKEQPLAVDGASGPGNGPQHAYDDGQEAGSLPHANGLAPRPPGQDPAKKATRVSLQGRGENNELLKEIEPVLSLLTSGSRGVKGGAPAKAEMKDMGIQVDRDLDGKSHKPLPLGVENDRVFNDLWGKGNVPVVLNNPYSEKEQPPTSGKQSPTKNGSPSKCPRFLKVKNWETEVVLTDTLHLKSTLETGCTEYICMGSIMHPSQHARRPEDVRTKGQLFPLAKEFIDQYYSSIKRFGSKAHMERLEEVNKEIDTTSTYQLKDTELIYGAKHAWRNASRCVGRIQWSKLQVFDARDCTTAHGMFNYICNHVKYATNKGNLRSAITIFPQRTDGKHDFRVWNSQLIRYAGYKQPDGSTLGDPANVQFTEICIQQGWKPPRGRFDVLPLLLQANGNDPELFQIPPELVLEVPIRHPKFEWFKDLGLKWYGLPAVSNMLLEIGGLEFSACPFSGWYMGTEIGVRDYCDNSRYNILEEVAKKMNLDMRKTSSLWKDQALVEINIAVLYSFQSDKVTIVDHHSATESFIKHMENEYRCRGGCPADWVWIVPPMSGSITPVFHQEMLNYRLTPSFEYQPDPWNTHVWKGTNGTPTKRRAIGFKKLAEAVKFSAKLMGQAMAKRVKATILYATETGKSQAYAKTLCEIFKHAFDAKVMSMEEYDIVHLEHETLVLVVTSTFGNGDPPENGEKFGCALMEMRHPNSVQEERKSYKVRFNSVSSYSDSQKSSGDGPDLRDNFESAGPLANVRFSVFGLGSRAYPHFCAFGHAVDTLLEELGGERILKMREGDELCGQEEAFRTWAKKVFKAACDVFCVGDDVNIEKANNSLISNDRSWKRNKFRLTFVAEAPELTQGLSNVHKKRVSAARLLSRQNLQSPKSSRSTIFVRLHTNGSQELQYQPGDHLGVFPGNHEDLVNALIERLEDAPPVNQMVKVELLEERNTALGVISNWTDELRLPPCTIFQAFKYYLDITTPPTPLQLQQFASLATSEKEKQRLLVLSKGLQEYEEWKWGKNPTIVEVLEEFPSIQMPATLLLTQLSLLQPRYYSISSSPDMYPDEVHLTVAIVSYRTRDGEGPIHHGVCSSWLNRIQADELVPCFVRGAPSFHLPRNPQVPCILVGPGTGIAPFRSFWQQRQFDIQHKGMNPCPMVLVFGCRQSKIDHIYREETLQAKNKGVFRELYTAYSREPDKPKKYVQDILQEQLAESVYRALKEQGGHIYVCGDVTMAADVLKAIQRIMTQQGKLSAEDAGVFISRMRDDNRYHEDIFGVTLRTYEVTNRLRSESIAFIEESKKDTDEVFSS
The target of assay [3] is T2, Nitric oxide synthase 1.
Description: In vitro inhibition of human neuronal nitric oxide synthase.
Assay [4] deals with Nitric oxide synthase, inducible (Homo sapiens, UniProt P35228).
Chain of Nitric oxide synthase, inducible (P35228 whole entry): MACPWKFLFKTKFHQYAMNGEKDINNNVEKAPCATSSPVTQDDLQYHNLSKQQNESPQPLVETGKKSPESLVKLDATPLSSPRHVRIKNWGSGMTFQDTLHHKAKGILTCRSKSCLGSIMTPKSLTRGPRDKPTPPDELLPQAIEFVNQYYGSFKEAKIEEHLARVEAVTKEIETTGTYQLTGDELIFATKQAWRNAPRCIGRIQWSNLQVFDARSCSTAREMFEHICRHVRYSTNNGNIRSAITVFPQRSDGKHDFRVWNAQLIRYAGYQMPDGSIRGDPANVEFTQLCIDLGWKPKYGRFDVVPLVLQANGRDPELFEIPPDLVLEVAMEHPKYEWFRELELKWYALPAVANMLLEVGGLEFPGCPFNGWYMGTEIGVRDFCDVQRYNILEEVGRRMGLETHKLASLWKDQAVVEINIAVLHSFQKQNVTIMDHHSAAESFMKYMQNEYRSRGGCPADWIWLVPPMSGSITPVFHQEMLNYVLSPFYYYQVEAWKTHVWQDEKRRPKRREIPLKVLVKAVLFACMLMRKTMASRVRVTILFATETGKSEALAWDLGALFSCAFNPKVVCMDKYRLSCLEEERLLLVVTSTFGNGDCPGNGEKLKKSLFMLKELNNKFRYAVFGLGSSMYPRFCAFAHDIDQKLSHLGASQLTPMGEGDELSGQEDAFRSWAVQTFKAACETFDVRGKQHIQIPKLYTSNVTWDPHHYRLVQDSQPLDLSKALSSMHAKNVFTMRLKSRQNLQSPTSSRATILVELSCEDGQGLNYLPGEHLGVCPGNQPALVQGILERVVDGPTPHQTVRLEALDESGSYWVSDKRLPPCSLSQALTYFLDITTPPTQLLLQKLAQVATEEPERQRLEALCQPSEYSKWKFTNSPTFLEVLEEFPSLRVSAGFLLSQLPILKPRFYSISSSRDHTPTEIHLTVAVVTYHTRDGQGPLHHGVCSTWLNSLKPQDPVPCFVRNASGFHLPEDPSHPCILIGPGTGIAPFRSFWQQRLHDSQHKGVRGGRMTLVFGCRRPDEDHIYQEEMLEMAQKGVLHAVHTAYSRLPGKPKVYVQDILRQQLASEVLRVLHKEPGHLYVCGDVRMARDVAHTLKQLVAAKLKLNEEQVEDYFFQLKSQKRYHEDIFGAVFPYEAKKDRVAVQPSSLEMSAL
In assay [5] the target is T3, Nitric oxide synthase 3 (Homo sapiens) (UniProt P29474).
T3 sequence (whole entry): T1 sequence (P29474 whole entry)
Nature of the assay: Percentage inhibition of human endothelial nitric oxide synthase (eNOS) at 100 uM.

One may read the IC50 as the concentration needed to halve the response being measured. In general, inhibition refers to the change of the read-out against control, counted positive when it falls. A higher inhibition goes with a response far below the control. For `CNc1cc(C)cc(C)n1`, the IC50 is 30 µM in assay [1], > 100 µM in assay [3] and 86 µM in assay [4]. Further, in assay [2], the inhibition is < 20%.
`N#Cc1ccc(C(=O)N2CCC3(CC2)N=C(N)c2c(F)ccc(F)c2N3)cn1`: the inhibition in assay [5] is < 20%.
Take `CCOC(=O)N1CCC(Nc2cc(OCC)ccn2)CC1`: the inhibition in assay [5] was < 20%. Further, the results for the 50% inhibitory concentration (IC50) in assay [1], in assay [3] and in assay [4] were > 100 µM, 96 µM and 3.8 µM, respectively.
Turning to `COc1ccnc(N)c1`, the half-maximal inhibitory concentration (IC50) in assay [1], in assay [3] and in assay [4] was 1 µM in each case.
Take `COc1ccnc(NC2CCN(C(=O)c3ccc(Cl)cc3)CC2)c1`: the IC50 was found to be 36 µM in assay [1], 7.8 µM in assay [3] and 0.053 µM in assay [4].
The like results for `CCCC1CCCCCC(N)=N1` (stereo not given) were, in that order, 4.8 µM, 0.24 µM and 0.026 µM.
The like results for `COc1ccnc(NC2CCN(C(=O)c3ccccc3)CC2)c1` were, in that order, 100 µM, 28 µM and 0.53 µM.
Regarding `CC(=N)NCCCC[C@H](N)C(=O)O` [L-NIL], half-maximal inhibition in assay [3] (IC50) required 1.6 µM. That is a single-digit micromolar value.
Compound `CCc1ccnc(N)c1` registered an IC50 in assay [3] of 2.2 µM.
Regarding `CC(=N)NCCSCC[C@H](N)C(=O)O` [GW-274150], the IC50 was 34 µM in assay [1], 18 µM in assay [3] and 0.07 µM in assay [4].
The corresponding values for `Cc1cc(C)nc(N)c1` are 0.17 µM, 0.098 µM and 0.045 µM.
Turning to `COc1ccnc(NC2CCN(C(=O)c3ccc(C#N)cc3)CC2)c1`, in assay [5], the inhibition was < 20%.
In the case of `CCOC(=O)N1CCC(Nc2ccccn2)CC1`, the inhibition in assay [5] and in assay [2] was < 20% in each case. Besides, the IC50 was > 100 µM in assay [1], > 100 µM in assay [3] and 13 µM in assay [4].
